# pKi: −log10 of the molar value.
# Target: T1, human NK3 receptor (Homo sapiens, UniProt P29371)
# T1 construct: expressed in transfected cells; host or cells: HEK293 cells (transient expression), membrane preparation
# T1 sequence (P29371 1-465): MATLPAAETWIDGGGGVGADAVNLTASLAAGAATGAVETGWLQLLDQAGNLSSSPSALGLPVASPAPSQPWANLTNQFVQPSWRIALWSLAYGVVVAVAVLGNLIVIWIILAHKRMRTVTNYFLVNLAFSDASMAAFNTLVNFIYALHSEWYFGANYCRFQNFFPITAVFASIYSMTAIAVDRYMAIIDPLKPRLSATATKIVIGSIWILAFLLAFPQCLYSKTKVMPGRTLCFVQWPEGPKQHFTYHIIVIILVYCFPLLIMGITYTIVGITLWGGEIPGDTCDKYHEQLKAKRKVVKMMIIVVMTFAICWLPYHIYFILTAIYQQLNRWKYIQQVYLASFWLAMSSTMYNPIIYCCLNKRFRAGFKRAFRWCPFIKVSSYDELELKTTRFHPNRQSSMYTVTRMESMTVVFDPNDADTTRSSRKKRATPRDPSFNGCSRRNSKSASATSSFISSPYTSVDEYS
# Test: [3H]SR142801 competition binding assay (hNK3 receptor binding)
# Conditions: [3H]SR142801 radioligand; membranes from HEK293 cells transiently expressing recombinant human NK3 receptor; Ki by Cheng-Prussoff; read-out: KiNK3 h
# Method in brief: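 Competition binding with [3H]SR142801 on membranes of HEK293 cells transiently expressing human NK3, 5 μg protein/well, in Tris-HCl/MnCl2/phosphoramidon/BSA buffer pH 7.4. Nonspecific binding defined with 10 μM SB222200; filtration then scintillation counting. IC50 from Hill fit was converted to Ki by Cheng-Prusoff; duplicate, mean ± SEM.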
row,pKi,Compound
1,7.77,"C[C@@H](Oc1ccc(Cl)cn1)[C@@H]1CN(C(=O)c2ccc(N)nc2)C[C@H]1c1ccc(Cl)c(Cl)c1 (racemic) [Example 20, (6-Amino-pyridin-3-yl)-[(3SR,4RS)-3-[(RS)-1-(5-chloro-pyridin-2-yloxy)-ethyl]-4-(3,4-dichloro-phenyl)-pyrrolidin-1-yl]-methanone]"
2,7.45,"Cc1nccn1-c1ccc(C(=O)N2C[C@H]([C@H](C)Oc3ccc(C#N)cn3)[C@@H](c3ccc(Cl)c(Cl)c3)C2)cc1 (racemic) [Example 64, 6-((SR)-1-{(3RS,4SR)-4-(3,4-Dichloro-phenyl)-1-[4-(2-methyl-imidazol-1-yl)-benzoyl]-pyrrolidin-3-yl}-ethoxy)-nicotinonitrile]"
3,8.68,"C[C@H](Oc1ccc(C#N)cn1)[C@H]1CN(C(=O)c2ccc(-c3nnco3)cc2)C[C@@H]1c1ccc(Cl)c(Cl)c1 (racemic) [Example 63, 6-{(SR)-1[-(3RS,4SR)-4-(3,4-Dichloro-phenyl)-1-(4-[1,3,4]oxadiazol-2-yl-benzoyl)-pyrrolidin-3-yl]-ethoxy}-nicotinonitrile]"
4,8.25,"[(3S,4R)-3-[(R)-1-(5-Chloro-pyridin-2-yloxy)-ethyl]-4-(3,4-dichloro-phenyl)-pyrrolidin-1-yl]-(6-methoxy-pyridin-3-yl)-methanone and [(3R,4S)-3-[(S)-1-(5-Chloro-pyridin-2-yloxy)-ethyl]-4-(3,4-dichloro-phenyl)-pyrrolidin-1-yl]-(6-methoxy-pyridin-3-yl)-methanone [Example 21]"
5,8.37,"C[C@H](Oc1ccc(C(F)(F)F)cn1)[C@H]1CN(C(=O)c2ccc(C#N)nc2)C[C@@H]1c1ccc(Cl)c(Cl)c1 (racemic) [Example 56, 5-{(3SR,4RS)-3-(3,4-Dichloro-phenyl)-4-[(SR)-1-(5-trifluoromethyl-pyridin-2-yloxy)-ethyl]-pyrrolidine-1-carbonyl}-pyridine-2-carbonitrile]"
6,8.49,"C[C@@H](Oc1ccc(Cl)cn1)[C@@H]1CN(C(=O)c2ccc(C#N)cc2)C[C@H]1c1ccc(Cl)c(Cl)c1 (racemic) [Example 10, 4-[(3SR,4RS)-3-[(RS)-1-(5-Chloro-pyridin-2-yloxy)-ethyl]-4-(3,4-dichloro-phenyl)-pyrrolidine-1-carbonyl]-benzonitrile]"
7,7.74,"Cc1ncc(C(=O)N2C[C@H]([C@H](C)Oc3ccc(C#N)cn3)[C@@H](c3ccc(Cl)c(F)c3)C2)cn1 [Example 91, 6-{(S)-1-[(3R,4S)-4-(4-Chloro-3-fluoro-phenyl)-1-(2-methyl-pyrimidine-5-carbonyl)-pyrrolidin-3-yl]-ethoxy}-nicotinonitrile]"
8,7.20,"COc1ccc(C(=O)N2C[C@@H]([C@@H](C)Oc3ncc(F)cn3)[C@H](c3ccc(Cl)c(Cl)c3)C2)cn1 (racemic) [Example 25, {(3RS,4SR)-3-(3,4-Dichloro-phenyl)-4-[(RS)-1-(5-fluoro-pyrimidin-2-yloxy)-ethyl]-pyrrolidin-1-yl}-(6-methoxy-pyridin-3-yl)-methanone]"
9,7.25,"Cc1ncc(C(=O)N2C[C@H]([C@H](CO)Oc3ccc(Cl)cn3)[C@@H](c3ccc(Cl)c(Cl)c3)C2)cn1 (racemic) [Example 87, [(3RS,4SR)-3-[(RS)-1-(5-Chloro-pyridin-2-yloxy)-2-hydroxy-ethyl]-4-(3,4-dichloro-phenyl)-pyrrolidin-1-yl]-(2-methyl-pyrimidin-5-yl)-methanone]"
10,7.45,"C[C@@H](Oc1ccc(C(F)(F)F)cc1)[C@@H]1CN(C(=O)c2ccc(C#N)cc2)C[C@H]1c1ccc(Cl)c(Cl)c1 (racemic) [Example 2, 4-{(3RS,4SR)-3-(3,4-Dichloro-phenyl)-4-[(RS)-1-(4-trifluoromethyl-phenoxy)-ethyl]-pyrrolidine-1-carbonyl}-benzonitrile]"
11,7.34,"Cc1ncc(C(=O)N2C[C@H]([C@H](C)Oc3ccc(Cl)cn3)[C@@H](c3ccc(F)c(Cl)c3)C2)cn1 [Example 101, {(3S,4R)-3-(3-Chloro-4-fluoro-phenyl)-4-[(S)-1-(5-chloro-pyridin-2-yloxy)-ethyl]-pyrrolidin-1-yl}-(2-methyl-pyrimidin-5-yl)-methanone]"
12,9.30,"C[C@H](Oc1ccc(C#N)cn1)[C@H]1CN(C(=O)c2ccc(S(=O)(=O)N(C)C)nc2)C[C@@H]1c1ccc(Cl)c(Cl)c1 (racemic) [Example 58, 5-[(3RS,4SR)-3-[(SR)-1-(5-Cyano-pyridin-2-yloxy)-ethyl]-4-(3,4-dichloro-phenyl)-pyrrolidine-1-carbonyl]-pyridine-2-sulfonic acid dimethylamide]"
13,8.40,"Cc1cc(C(=O)N2C[C@H]([C@H](C)Oc3ccc(Cl)cn3)[C@@H](c3ccc(F)cc3)C2)cnn1 [Example 115, [(3R,4S)-3-[(S)-1-(5-Chloro-pyridin-2-yloxy)-ethyl]-4-(4-fluoro-phenyl)-pyrrolidin-1-yl]-(6-methyl-pyridazin-4-yl)-methanone]"
14,7.63,"Cc1ncc(C(=O)N2C[C@H]([C@H](C)Oc3ccc(C#N)cn3)[C@@H](c3ccc(Cl)c(Cl)c3)C2)cn1 (racemic) [Example 57, 6-{(SR)-1-[(3RS,4SR)-4-(3,4-Dichloro-phenyl)-1-(2-methyl-pyrimidine-5-carbonyl)-pyrrolidin-3-yl]-ethoxy}-nicotinonitrile]"
15,8.04,"Cc1ccc(C(=O)N2C[C@@H]([C@@H](C)Oc3ccc(Cl)cn3)[C@H](c3ccc(Cl)c(Cl)c3)C2)cn1 (racemic) [Example 16, [(3SR,4RS)-3-[(RS)-1-(5-Chloro-pyridin-2-yloxy)-ethyl]-4-(3,4-dichloro-phenyl)-pyrrolidin-1-yl]-(6-methyl-pyridin-3-yl)-methanone]"
16,7.10,"C[C@@H](Oc1ccc(Cl)cn1)[C@@H]1CN(C(=O)c2ccc(CC#N)o2)C[C@H]1c1ccc(Cl)c(Cl)c1 (racemic) [Example 30, {5-[(3SR,4RS)-3-[(RS)-1-(5-Chloro-pyridin-2-yloxy)-ethyl]-4-(3,4-dichloro-phenyl)-pyrrolidine-1-carbonyl]-furan-2-yl}-acetonitrile]"
17,8.40,"Cc1cc(C(=O)N2C[C@H]([C@H](C)Oc3ccc(Cl)cn3)[C@@H](c3ccc(F)c(F)c3)C2)cnn1 [Example 104, [(3R,4S)-3-[(S)-1-(5-Chloro-pyridin-2-yloxy)-ethyl]-4-(3,4-difluoro-phenyl)-pyrrolidin-1-yl]-(6-methyl-pyridazin-4-yl)-methanone]"
18,7.61,"C[C@H](Oc1ccc(C#N)cn1)[C@H]1CN(C(=O)c2ccc(CN(C)C)nc2)C[C@@H]1c1ccc(Cl)c(Cl)c1 (racemic) [Example 43, 6-{(SR)-1-[(3RS,4SR)-4-(3,4-Dichloro-phenyl)-1-(6-dimethylaminomethyl-pyridine-3-carbonyl)-pyrrolidin-3-yl]-ethoxy}-nicotinonitrile]"
19,8.17,"Cc1ncc(C(=O)N2CC(c3ccc(Cl)c(Cl)c3)[C@@H]([C@H](C)Oc3ccc(Cl)cn3)C2)cn1 (single isomer, unassigned) [Example 40]"
20,7.93,"Cc1ncc(C(=O)N2C[C@@H]([C@@H](C)Oc3ccc(Cl)cn3)[C@H](c3ccc(Cl)c(Cl)c3)C2)cn1 (racemic) [Example 17, [(3SR,4RS)-3-[(RS)-1-(5-Chloro-pyridin-2-yloxy)-ethyl]-4-(3,4-dichloro-phenyl)-pyrrolidin-1-yl]-(2-methyl-pyrimidin-5-yl)-methanone]"
21,7.57,"Cc1cc(C(=O)N2C[C@H]([C@H](C)Oc3ccc(Cl)cn3)[C@@H](c3ccc(F)cc3F)C2)cnn1 (racemic) [Example 117, [(3RS,4SR)-3-[(SR)-1-(5-Chloro-pyridin-2-yloxy)-ethyl]-4-(2,4-difluoro-phenyl)-pyrrolidin-1-yl]-(6-methyl-pyridazin-4-yl)-methanone]"
22,8.46,"C[C@H](Oc1ccc(C#N)cn1)[C@H]1CN(C(=O)c2ccc(OCC(F)(F)F)nc2)C[C@@H]1c1ccc(Cl)c(Cl)c1 (racemic) [Example 76, 6-((SR)-1-{(3RS,4SR)-4-(3,4-Dichloro-phenyl)-1-[6-(2,2,2-trifluoro-ethoxy)-pyridine-3-carbonyl]-pyrrolidin-3-yl}-ethoxy)-nicotinonitrile]"
23,7.62,"Cc1ncc(C(=O)N2C[C@H]([C@H](C)Oc3ccc(Cl)cn3)[C@@H](c3ccc(Cl)cc3)C2)cn1 [Example 109, {(3S,4R)-3-(4-Chloro-phenyl)-4-[(S)-1-(5-chloro-pyridin-2-yloxy)-ethyl]-pyrrolidin-1-yl}-(2-methyl-pyrimidin-5-yl)-methanone]"
24,8.12,"C[C@H](Oc1ccc(C(F)(F)F)cn1)[C@H]1CN(C(=O)c2cnc(C3CC3)nc2)C[C@@H]1c1ccc(Cl)c(Cl)c1 (racemic) [Example 85, (2-Cyclopropyl-pyrimidin-5-yl)-{(3SR,4RS)-3-(3,4-dichloro-phenyl)-4-[(SR)-1-(5-trifluoromethyl-pyridin-2-yloxy)-ethyl]-pyrrolidin-1-yl}-methanone]"
25,7.07,"Cc1cc(C(=O)N2C[C@H]([C@H](C)Oc3ccc(C#N)cn3)[C@@H](c3ccc(F)c(F)c3)C2)c(C)nn1 [Example 114, 6-{(S)-1-[(3R,4S)-4-(3,4-Difluoro-phenyl)-1-(3,6-dimethyl-pyridazine-4-carbonyl)-pyrrolidin-3-yl]-ethoxy}-nicotinonitrile]"

# Source: patent US8012998B2, “Pyrrolidine aryl-ether as NK-3 receptor antagonists” (Hoffmann—LA Roche Inc., priority 2007, dated 2011)
